Holding throughout (type): physicochemical
Data set [1] is described as follows: Differential scanning calorimetry of wax materials. To be noted: for Relative Crystallinity: 290 J/g for a 100% crystalline material; for Enthalpy of Melting: DSC, heating to 100° C. at 10° C./min. How it is done: Melting profile of wax materials was analyzed with a DSC 250 Discovery (TA Instruments, New Castle, Del.) calorimeter using the methodology by Donhowe and Fennema (1993). Wax samples (approximately 10 mg) were first heated to 100° C. at a rate of 200° C./min, held for 3 min, cooled to 25° C. at a rate of 20° C./min and equilibrated for 3 min. Actual test ramp was then performed by heating to 100° C. at a rate of 10° C./min. Melting point ranges were calculated from the average of three samples from each material.

The nature of data set [2]: Cohesiveness of wax materials (three-point bend test). Particulars: area under curve to peak force, 4 mm-thick cast sample. How it is done:
(§1) Hardness, defined as a measure of resistance to local deformation, was measured using a H-1200 Universal Penetrometer (Humboldt Mfg. Co., Raleigh, NC) following ASTM D1321 standard. Ten grams of molten material were cast in a 5 cm diameter by 3 cm tall hollow polyvinyl chloride plastic mold. Material was allowed to fully cool and equilibrate to room temperature for at least 6 hours prior to testing. The distance traveled by penetrometer needle (mm) into the wax disc was recorded as the hardness (mm^−1) after taking the reciprocal value. Cohesiveness, defined as the strength of a material due to interatomic or intermolecular forces, was measured as per previous methodology (Fei et al., “Synthesis and Characterization of Soybean Oil-Based Waxes and Their Application as Paraffin Substitute for Corrugated Coating,” J. Ind. Eng. Chem. 58:113-122 (2018), which is hereby incorporated by reference in its entirety) by a three-point bend test using a TA.XTPlus Texture Analyzer (Stable Micro Systems, So. Hamilton, MA) with a TA-92N probe on a 4 mm-thick cast wax sample, made by casting 2.2-2.8 g of molten material in a small hexagonal weighing boat, and allowing samples to cool to r.t. for at least 2 hours. Hexagonal samples were then sanded down flat to a uniform mass with a fine grit sanding sponge taking care to remove concave and convex regions. Test was performed by placing sample between two vertical support bars 12 mm apart and driving the blunt blade normal to the sample at 0.5 mm/s to a trigger distance of 3 mm. The area under curve was acquired from a distance at 0 mm to the peak positive force, and the average of three tests for each material was recorded as the cohesiveness (g mm) of the material.

Data set [3] can be described thus: Hardness of wax materials (penetrometer, ASTM D1321). To be noted: reciprocal of needle penetration distance, room temperature. How it is done:
as §1

Here are results for five compounds from patent US12173137B2, “Functionalized high-oleic soybean oil wax and emulsion for post-harvest treatment of fresh fruit” (Iowa State University Research Foundation, Inc., priority 2020, dated 2024).

Marks after values point to notes of the source that are not given here.

As for `CCCCCC[C@@H](O)CCCCCCCCCCC(=O)O` [Compound 6, (R)-12-hydroxyoctadecanoic acid, reference compound], in data set [1], the “Relative Crystallinity” value is listed as 51.2 ± 1.0^ab % and the “Enthalpy of Melting” value was found to be 148.4 ± 3.1 J/g. Further, the Cohesiveness in data set [2] is listed as 1443 ± 30^c g mm. Moreover, in data set [3], the Hardness is given as 2.22 ± 0.04^c mm^−1.

Turning to `CCCCCCC(=O)CCCCCCCCCCC(=O)O` [Compound 7, 12-Oxooctadecanoic Acid], in data set [1], the “Relative Crystallinity” value came out at 42.8 ± 10.1% and the “Enthalpy of Melting” value is reported as 124.3 ± 29.4 J/g. In addition, the Cohesiveness in data set [2] came out at 360 ± 34 g mm. For the same compound, the Hardness in data set [3] was found to be 0.63 ± 0.08 mm^−1.

Take `CCCCCCC(=O)CCCCCCCCCCC(=O)OCC(COC(=O)CCCCCCCCCCC(=O)CCCCCC)OC(=O)CCCCCCCCCCC(=O)CCCCCC` [Compound 8, Propane-1,2,3-triyl tris(12-oxooctadecanoate)]: in data set [1], the “Relative Crystallinity” value is listed as 43.7 ± 0.7^ % and the “Enthalpy of Melting” value was determined as 126.8 ± 2.0 J/g. For the same compound, in data set [2], the Cohesiveness was determined as 203 ± 49 g mm. In data set [3], the Hardness is recorded as 0.50 ± 0.09 mm^−1.

As for “Mixture of 9-Hydroxyoctadecanoic (4a) and 10-Hydroxyoctadecanoic Acid (4b) [Compound 4a-b]”, in data set [1], the “Relative Crystallinity” value is listed as 6.3 ± 0.4^f % and the “Enthalpy of Melting” value stood at 18.3 ± 0.1 J/g. The Cohesiveness in data set [2] is 95 ± 1 g mm. Moreover, the Hardness in data set [3] was 0.30 ± 0.02^e mm^−1.

On to “Triacylglyceride of Regioisomeric Hydroxyoctadecanoic Acid [Compound 3]”, for which, in data set [1], the “Relative Crystallinity” value is recorded as 12.9 ± 1.5^ef % and the “Enthalpy of Melting” value was 37.3 ± 4.3 J/g. The compound also returned a Cohesiveness in data set [2] of 113 ± 13 g mm. In data set [3], this compound had a Hardness of 0.68 ± 0.05 mm^−1.
